For assay [1], the target named is T1, iNOS (Mus musculus, UniProt P29477).
T1 construct: endogenous in cells; host or cells: RAW264.7 macrophage cells, LPS-stimulated
T1 sequence (P29477 1-1144): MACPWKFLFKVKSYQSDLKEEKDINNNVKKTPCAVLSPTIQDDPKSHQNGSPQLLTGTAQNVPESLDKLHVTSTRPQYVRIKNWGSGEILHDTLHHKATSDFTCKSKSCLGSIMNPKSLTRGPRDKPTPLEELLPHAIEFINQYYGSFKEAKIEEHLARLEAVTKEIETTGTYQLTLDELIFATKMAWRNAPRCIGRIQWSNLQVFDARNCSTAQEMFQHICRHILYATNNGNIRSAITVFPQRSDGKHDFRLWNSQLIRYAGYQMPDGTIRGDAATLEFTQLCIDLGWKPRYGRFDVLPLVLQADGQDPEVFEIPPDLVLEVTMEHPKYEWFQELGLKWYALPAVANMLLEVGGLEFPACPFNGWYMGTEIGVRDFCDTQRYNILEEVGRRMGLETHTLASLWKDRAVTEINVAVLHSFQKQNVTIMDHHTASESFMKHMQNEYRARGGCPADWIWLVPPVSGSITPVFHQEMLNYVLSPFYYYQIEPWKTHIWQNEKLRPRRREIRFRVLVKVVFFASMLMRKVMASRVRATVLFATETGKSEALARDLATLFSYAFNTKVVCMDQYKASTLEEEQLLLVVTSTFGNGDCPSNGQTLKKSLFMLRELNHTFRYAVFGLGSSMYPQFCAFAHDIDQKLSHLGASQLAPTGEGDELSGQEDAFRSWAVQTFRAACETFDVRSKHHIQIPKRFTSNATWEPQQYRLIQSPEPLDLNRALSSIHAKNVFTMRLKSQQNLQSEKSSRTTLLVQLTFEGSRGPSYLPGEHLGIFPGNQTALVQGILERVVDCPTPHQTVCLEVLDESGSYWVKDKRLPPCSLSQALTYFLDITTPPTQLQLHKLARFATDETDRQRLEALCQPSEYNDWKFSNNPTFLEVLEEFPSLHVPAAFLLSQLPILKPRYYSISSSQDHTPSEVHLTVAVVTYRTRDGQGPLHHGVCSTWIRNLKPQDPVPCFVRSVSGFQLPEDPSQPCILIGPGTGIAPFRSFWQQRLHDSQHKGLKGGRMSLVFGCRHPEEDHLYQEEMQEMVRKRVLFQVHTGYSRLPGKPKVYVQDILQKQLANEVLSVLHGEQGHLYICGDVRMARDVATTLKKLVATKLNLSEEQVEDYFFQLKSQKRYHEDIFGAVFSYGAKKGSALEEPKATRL
Nature of the assay: Inhibition of LPS-induced iNOS activity (nitric oxide production) in RAW264.7 macrophage cells. The settings on record: LPS 1 μg/ml, 20 hr. It counts as cell-based. The method, then:
The effect of xanthorrhizol on iNOS activity induced by LPS was measured. RAW264.7 macrophage cells were maintained in DMEM supplemented with penicillin-streptomycin and 10% FBS at 37° C., in 5% CO2 of humidified air. The cells in 10% FBS-DMEM without phenol red media were plated in 24-well plates (8×10^5/ml), and then incubated for 4 hr. The cells were replaced with new media, and incubated in the medium with 1 μg/ml of LPS and xanthorrhizol. After an additional 20 hr incubation, the media were removed and analyzed for nitrite accumulation as an indicator of NO production by the Griess reaction. 150 μl of Griess reagent were added to 100 μl of each supernatant from LPS and/or xanthorrhizol treated cells in triplicate. The plates were incubated for 10 min, and were read at 570 nm against a standard curve of NaNO2. The percentage inhibition was expressed as [1−(NO level of sample/NO level of vehicle treated−control)]×100.

Assay [2] has as its system procaspase-3. Nature of the assay: Activation of procaspase-3 in HL-60 cells (western blotting). It is filed as cell-based, Human. The settings on record: 40 μM. The method, then:
To investigate whether xanthorrhizol also induces the activation of procaspase-3, HL-60 cells were treated with 0, 10, 40, 80 μM of xanthorrhizol for 24 hr and was also treated with 80 μM of xanthorrhizol for 0, 2, 4, 6, 9 and 12 hr. The cells were harvested, suspended in 400 μl of lysis buffer described in embodiment 4, incubated 4° C. for 40 min and centrifuged. The supernatant was electrophoresized on the 12% SDS-polyacrylamide gel. Blot was transferred from SDS-polyacrylamide gel to PVDF membrane, blocked with 5% fat-free dry milk-PBST buffer for 2 hr at room temperature and then washed in PBST buffer. Membrane was incubated for 2 hr at room temperature with mouse procaspase-3 monoclonal antibody (Transduction Laboratories, Lexington, Ky., USA). Blot was rinsed with PBST, incubated with mouse horseradish peroxidase-conjugated secondary antibody and again washed 3 times in PBST buffer for 5 min. Transferred protein was visualized with an ECL detection kit.
Background: A western blot detects proteins with antibodies after separation by electrophoresis.

Assay [3] concerns HL-60 cells. Nature of the assay: Apoptosis morphology in HL-60 cells (Hoechst 33258 staining, fluorescence microscopy). It counts as cell-based, Human. The settings on record: xanthorrhizol 40 μM, 24 hr. The method, then: Human promyelocytic leukemia (HL-60) cells were maintained at 37° C. in a humidified atmosphere of 95% air and 5% CO2 in RPMI 1640 supplemented with 10% (v/v) heat-inactivated fetal bovine serum (FBS). HL-60 cells were cultured in 6-well plate in RPMI 1640 medium containing 10% FBS in the absence or presence of the methanolic extract of Curcuma xanthorrhiza (15 μg/ml) and xanthorrhizol (40 μM) and centrifuged after 24 hr. 4% neutral buffered formaline was added to the cell and the mixture was transferred to slides, which were left at room temperature for dryness. The fixed cells were washed in PBS, air-dried and stained with DNA-specific fluorochrome Hoechest 33258 for 1 min. The adhered cells were washed with PBS, air dried, and mounted with 50% glycerol. The slides were observed by fluorescence microscopy.

By IC50 is commonly meant the concentration at which inhibition is half-maximal. Usually inhibition stands for the relative decrease from the control value, in per cent.

Some results are limits rather than exact numbers.

`CC(C)=CCC[C@@H](C)c1ccc(C)c(O)c1` [xanthorrhizol]: the IC50 in assay [1] (read-out: IC50, LPS-induced iNOS activity (NO) (converted)) was 4.63 µM. In assay [1] (RAW264.7, 10 μg/ml, read-out: percentage inhibition of LPS-induced nitric oxide production (iNOS activity)), the inhibition at 10 µg/mL was at least 99%. The “activation of procaspase-3” value in assay [2] is on record as “activated the procaspase-3 to caspase-3”. The “morphological characteristics of apoptosis” value in assay [3] is “distinct chromatin condensation and nuclear fragmentation”.

The values above are taken from patent US20050261162A1, “Pharmaceutical composition for preventing and treating cancer and treating an inflammation” (priority 2001, published 2005).
